Tested on: spontaneously hypertensive rats (SHR)
Experiment: Insulin sensitivity evaluation by glucose clamp technique in spontaneously hypertensive rats (SHR)
Assay type: in vivo, rat
Conditions: for M-value (average glucose infusion rate, index of insulin sensitivity): n=10, vehicle 5.9±0.5
Procedure: For evaluation of insulin resistance, 23-week-old spontaneously hypertensive rats (SHR) were used. Vehicle (0.5% methyl cellulose solution administration) and compound A (0.3 and 1 mg/kg/day) were orally administered for 2 weeks, after which an insulin sensitivity evaluation test by a glucose clamp technique was performed. The rats were grouped such that each parameter was leveled based on the glucose level and plasma insulin value before start of the drug administration. SHR were fasted from the evening of the day before the operation of the glucose clamp technique.
The glucose clamp technique was performed according to the following procedures. The rats were anesthetized with pentobarbital sodium (50 mg/kg i.p.) and catheters [PR45 (trademark), NATUME SEISAKUSHO CO., LTD.] for blood collection, for intravenous injection of insulin [novolin R injection 40 (trademark), Novo Nordisk Pharma Ltd.] and for intravenous injection of glucose [Otsuka glucose injection 50% (trademark), Otsuka Pharmaceutical Co., Ltd.] were each placed in the right common carotid artery, left femoral vein and right femoral vein, respectively. The glucose level was measured using a simplified glucose meter [Advantage II (trademark), Roche Diagnostics Corporation]. Using a peristaltic pump [MINIPULS 3 (trademark), Gilson Company, Inc.], insulin was constantly infused continuously at an injection rate of 40 and 20 mU/kg/min for 5 and 3 min, respectively, to afford a high insulin state, and thereafter high insulin state was maintained at 8 mU/kg/min.. Glucose was constantly infused intravenously to maintain the range of initial value±10% of blood glucose, using a different peristaltic pump. […] Glucose was constantly infused for-90 min and an average of glucose infusion rate for the period of 40 min from 50 min to 90 min after the start of the infusion was calculated and used as an index showing the insulin sensitivity (M-value). […] For statistic analysis, Williams' test was used and significance was evaluated at a risk rate of less than 2.5%.

CCOc1nc2cccc(C(=O)O)c2n1Cc1ccc(-c2ccccc2-c2nc(=O)o[nH]2)cc1 [compound A, 2-Ethoxy-1-[[2′-(5-oxo-2,5-dihydro-1,2,4-oxadiazol-3-yl)biphenyl-4-yl]methyl]-1H-benzimidazole-7-carboxylic acid]
M-value (average glucose infusion rate, index of insulin sensitivity) (0.3 mg/kg/day orally for 2 weeks): 7.8 ± 0.5 mg/kg/min | M-value (average glucose infusion rate, index of insulin sensitivity) (1 mg/kg/day orally for 2 weeks): 8.6 ± 0.6 mg/kg/min | insulin sensitivity enhancing effect (0.3 and 1 mg/kg/day orally for 2 weeks): dose-dependent insulin sensitivity enhancing effect

From patent publication US20050032854A1, “Insulin resistance improving agents” (priority 2001, published 2005)
